According to patent US9540392B2, “Thienopyrimidines” (BAYER PHARMA AKTIENGESELLSCHAFT, priority 2012, dated 2017):

Experiments:
human full-length MKNK1 [1] = molecular target: T1, human full-length MKNK1 (Homo sapiens, UniProt Q9BUB5, T385D); assay: MKNK1 kinase assay (TR-FRET); format: biochemical; conditions: 10 μM ATP
T1 construct: GST (N); purchased Carna Biosciences 02-145; host or cells: insect cells (baculovirus expression system)
Source text: MKNK1-inhibitory activity of compounds of the present invention was quantified employing the MKNK1 TR-FRET assay as described in the following paragraphs.
A recombinant fusion protein of Glutathione-S-Transferase (GST, N-terminally) and human full-length MKNK1 (amino acids 1-424 and T344D of accession number BAA 19885.1), expressed in insect cells using baculovirus expression system and purified via glutathione sepharose affinity chromatography, was purchased from Carna Biosciences (product no 02-145) and used as enzyme. As substrate for the kinase reaction the biotinylated peptide biotin-Ahx-IKKRKLTRRKSLKG (C-terminus in amide form) was used which can be purchased e.g. form the company Biosyntan (Berlin-Buch, Germany).
For the assay 50 nL of a 100 fold concentrated solution of the test compound in DMSO was pipetted into a black low volume 384 well microtiter plate (Greiner Bio-One, Frickenhausen, Germany), 2 μL of a solution of MKNK1 in aqueous assay buffer [50 mM HEPES pH 7.5, 5 mM MgCl2, 1.0 mM dithiothreitol, 0.005% (v/v) Nonidet-P40 (Sigma)] was added and the mixture was incubated for 15 min at 22° C. to allow pre-binding of the test compounds to the enzyme before the start of the kinase reaction. Then the kinase reaction was started by the addition of 3 μL of a solution of adenosine-tri-phosphate (ATP, 16.7 μM=>final conc. in the 5 μL assay volume is 10 μM) and substrate (0.1 μM=>final conc. in the 5 μL assay volume is 0.06 μM) in assay buffer and the resulting mixture was incubated for a reaction time of 45 min at 22° C. The concentration of MKNK1 was adjusted depending of the activity of the enzyme lot and was chosen appropriate to have the assay in the linear range, typical concentrations were in the range of 0.05 μg/mL. The reaction was stopped by the addition of 5 μL of a solution of TR-FRET detection reagents (5 nM streptavidine-XL665 [Cisbio Bioassays, Codolet, France] and 1 nM anti-ribosomal protein […] (pSer236)-antibody from Invitrogen [#44921G] and 1 nM LANCE EU-W1024 Labeled ProteinG [Perkin-Elmer, product no. AD0071]) in an aqueous EDTA-solution (100 mM EDTA, 0.1% (w/v) bovine serum albumin in 50 mM HEPES pH 7.5).
The resulting mixture was incubated for 1 h at 22° C. to allow the formation of complex between the phosphorylated biotinylated peptide and the detection reagents. Subsequently the amount of phosphorylated substrate was evaluated by measurement of the resonance energy transfer from the Eu-chelate to the streptavidine-XL. Therefore, the fluorescence emissions at 620 nm and 665 nm after excitation at 350 nm were measured in a TR-FRET reader, e.g. a Rubystar (BMG Labtechnologies, Offenburg, Germany) or a Viewlux (Perkin-Elmer). […]

human full-length MKNK1 [2] = molecular target: T1, human full-length MKNK1; assay: MKNK1 kinase high ATP assay (TR-FRET); format: biochemical; conditions: 2 mM ATP, after preincubation with MKNK1; read-out: MKNK1 IC50 (MKNK1 high ATP)
How it was run: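 Compound was preincubated 15 min at 22° C. with MKNK1 in 50 mM HEPES pH 7.5, 5 mM MgCl2, 1.0 mM DTT, then the reaction ran 30 min at 22° C. with 2 mM ATP and 0.06 μM biotinylated peptide (final).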

[3] = tested on: 221 kinases other than MKNK; assay: Kinase selectivity profiling (Merck Millipore KinaseProfiler); format: biochemical; conditions: compound at 1 μM
Method: Compounds of the present invention show a higher kinase inhibition selectivity than compounds disclosed in the patent applications WO 2010/023181 A1, WO 2011/104334 A1, WO 2011/104337 A1, WO 2011/104338 A1 and WO 2011/104340 A1 (Boehringer Ingelheim).
The compounds were tested at a concentration of 1 μM using 221 kinases different from MKNK. Kinase activity is expressed as a percentage of the mean kinase activity in the positive control samples. The positive control value is considered to be 100%, and all test samples are measured in relation to this value. For example, a result of 40% means that, in comparison to the positive control sample, 40% kinase activity remains in the presence of the test compound.
Table 6 lists the fraction number of 221 investigated kinases with regard to their remaining activity in the presence of 1 μM of investigated compounds.
The compound described in example 10 is compared to the compound N-[3-(dimethylamino)propyl]-4-[(4-fluoro-2-isopropoxyphenyl)amino]-5-methylthieno[2,3-d]pyrimidine-6-carboxamide which served as reference compound (ref) and has been described in WO 2010/23181, WO 2011/104340 and US 2011/212103.

[4] = tested on: eIF4E Ser209 phosphorylation in A549 cells; assay: AlphaScreen SureFire eIF4E Ser209 phosphorylation assay in A549 cells with 20% FCS stimulation; format: cell-based; conditions: Homo sapiens, read-out: pEIF4e (IC50 of the EIF4e phosphorylation)
Source text: The AlphaScreen SureFire eIF4E Ser209 phoshorylation assay is used to measure the phosphorylation of endogenous eIF4E in cellular lysates. The AlphaScreen SureFire technology allows the detection of phosphorylated proteins in cellular lysates. In this assay, sandwich antibody complexes, which are only formed in the presence of the analyte (p-eIF4E Ser209), are captured by AlphaScreen donor and acceptor beads, bringing them into close proximity. The excitation of the donor bead provokes the release of singlet oxygen molecules that triggers a cascade of energy transfer in the Acceptor beads, resulting in the emission of light at 520-620 nm.
Surefire EIF4e Alphascreen in A549 cells with 20% FCS stimulation
For the assay the AlphaScreen SureFire p-eIF4E Ser209 10K Assay Kit and the AlphaScreen ProteinA Kit (for 10K assay points) both from Perkin Elmer were used. On day one 50.000 A549 cells were plated in a 96-well plate in 100 μL per well in growth medium (DMEM/Hams' F12 with stable Glutamin, 10% FCS) and incubated at 37° C. After attachment of the cells, medium was changed to starving medium (DMEM, 0.1% FCS, without Glucose, with Glutamin, supplemented with 5 g/L Maltose). On day two, test compounds were serially diluted in 50 μL starving medium with a final DMSO concentration of 1% and were added to A549 cells in test plates at a final concentration range from as high 10 μM to as low 10 nM depending on the activities of the tested compounds. Treated cells were incubated at 37° C. for 2 h. 37 ul FCS was added to the wells (=final FCS concentration 20%) for 20 min. Then medium was removed and cells were lysed by adding 50 μL lysis buffer. Plates were then agitated on a plate shaker for 10 min. After 10 min lysis time, 4 μL of the lysate is transferred to a 384 well plate (Proxiplate from Perkin Elmer) and 5 μL Reaction Buffer plus Activation Buffer mix containing AlphaScreen Acceptor beads was added. Plates were sealed with TopSeal-A adhesive film, gently agitated on a plate shaker for 2 hours at room temperature. Afterwards 2 μL Dilution buffer with AlphaScreen Donor beads were added under subdued light and plates were sealed again with TopSeal-A adhesive film and covered with foil. Incubation takes place for further 2 h gently agitation at room temperature. Plates were then measured in an EnVision reader (Perkin Elmer) with the AlphaScreen program. Each data point (compound dilution) was measured as triplicate.
The IC50 values were determined by means of a 4-parameter fit using the company's own software.

T1 sequence (Q9BUB5 1-424 isoform Q9BUB5-2 T344D): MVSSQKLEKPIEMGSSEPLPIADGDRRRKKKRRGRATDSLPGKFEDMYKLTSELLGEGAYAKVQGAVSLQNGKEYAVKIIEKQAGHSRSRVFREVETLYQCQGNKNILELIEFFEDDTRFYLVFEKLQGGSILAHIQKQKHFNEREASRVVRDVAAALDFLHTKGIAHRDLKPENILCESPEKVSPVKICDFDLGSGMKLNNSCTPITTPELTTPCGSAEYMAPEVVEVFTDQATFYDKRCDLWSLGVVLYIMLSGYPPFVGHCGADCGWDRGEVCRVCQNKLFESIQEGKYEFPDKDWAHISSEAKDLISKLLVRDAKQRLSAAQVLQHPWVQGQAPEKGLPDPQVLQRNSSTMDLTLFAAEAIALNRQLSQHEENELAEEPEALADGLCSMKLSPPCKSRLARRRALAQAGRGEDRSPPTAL

IC50 (human full-length MKNK1 [1]) [nM] | IC50 (human full-length MKNK1 [2]) [nM] | Fraction number of 221 kinases with remaining activity >30% and <80% [3] | Fraction number of 221 kinases with remaining activity ≦30% [3] | Fraction number of 221 kinases with remaining activity ≧80% [3] | IC50 [4] [nM] | SMILES
 | 3 |  |  |  | 381 | O=C(NCc1ccccc1)C1CCc2c(sc3ncnc(Nc4ccc5[nH]ncc5c4)c23)C1 (centres unmarked) [Example 21, N-Benzyl-4-(1H-indazol-5-ylamino)-5,6,7,8-tetrahydro[1] benzothieno [2,3-d]pyrimidine-7-carboxamide]
2 | 2 |  |  |  | 165 | CCOC(=O)C1CCc2c(sc3ncnc(Nc4cc5cn[nH]c5cc4OC)c23)C1 (centres unmarked) [Example 56, Ethyl 4-[(6-methoxy-1H-indazol-5-yl)amino]-5,6,7,8-tetrahydro[1]benzothieno[2,3-d]pyrimidine-7-carboxylate]
 | 0.7 |  |  |  | 203 | CCNC(=O)C1CCc2c(sc3ncnc(Nc4cc5cn[nH]c5cc4OC)c23)C1 (centres unmarked) [Example 58, N-Ethyl-4-[(6-methoxy-1H-indazol-5-yl)amino]-5,6,7,8-tetrahydro[1]benzothieno[2,3-d]pyrimidine-7-carboxamide]
 | 9.8 | 10/221 | 9/221 | 202/221 | 435 | Cc1c(C(=O)NCCCN(C)C)sc2ncnc(Nc3ccc(F)cc3OC(C)C)c12 [Ref, N-[3-(dimethylamino)propyl]-4-[(4-fluoro-2-isopropoxyphenyl)amino]-5-methylthieno[2,3-d]pyrimidine-6-carboxamide, reference compound]

The next lines start with the molecule.

SMILES | IC50 (human full-length MKNK1 [1]) [nM] | IC50 (human full-length MKNK1 [2]) [nM] | Fraction number of 221 kinases with remaining activity >30% and <80% [3] | Fraction number of 221 kinases with remaining activity ≦30% [3] | Fraction number of 221 kinases with remaining activity ≧80% [3] | IC50 [4] [nM]
CCOC(=O)C1CCc2c(sc3ncnc(Nc4ccc5[nH]ncc5c4)c23)C1 (centres unmarked) [Example 1, Ethyl 4-(1H-indazol-5-ylamino)-5,6,7,8-tetrahydro[1]benzothieno[2,3-d]pyrimidine-7-carboxylate] | 5 | 16 |  |  |  | 
O=C(O)C1CCc2c(sc3ncnc(Nc4ccc5[nH]ncc5c4)c23)C1 (centres unmarked) [Example 2, 4-(1H-Indazol-5-ylamino)-5,6,7,8-tetrahydro[1]benzothieno[2,3-d]pyrimidine-7-carboxylic acid] | 8 | 26 |  |  |  | 
CS(=O)(=O)CCCNC(=O)C1CCc2c(sc3ncnc(Nc4ccc5[nH]ncc5c4)c23)C1 (centres unmarked) [Example 4, 4-(1H-Indazol-5-ylamino)-N-[3-(methylsulfonyl)propyl]-5,6,7,8-tetrahydro[1]benzothieno[2,3-d]pyrimidine-7-carboxamide] | 8 | 9 |  |  |  | 
CN(C)C(=O)C1CCc2c(sc3ncnc(Nc4ccc5[nH]ncc5c4)c23)C1 (centres unmarked) [Example 10, 4-(1H-indazol-5-ylamino)-N,N-dimethyl-5,6,7,8-tetrahydro[1]benzothieno[2,3-d]pyrimidine-7-carboxamide] |  | 12 | 4/221 | 0/221 | 217/221 | 
O=C(NCc1cccc(F)c1)C1CCc2c(sc3ncnc(Nc4ccc5[nH]ncc5c4)c23)C1 (centres unmarked) [Example 18, N-(3-Fluorobenzyl)-4-(1H-indazol-5-ylamino)-5,6,7,8-tetrahydro[1]benzothieno-[2,3-d]pyrimidine-7-carboxamide] |  | 2 |  |  |  | 412
Cc1cccc(CNC(=O)C2CCc3c(sc4ncnc(Nc5ccc6[nH]ncc6c5)c34)C2)c1 (centres unmarked) [Example 20, 4-(1H-indazol-5-ylamino)-N-(3-methylbenzyl)-5,6,7,8-tetrahydro[1] benzothieno [2,3-d]pyrimidine-7-carboxamide] |  | 2 |  |  |  | 344
